Like-named read-outs stand apart in the source and are kept apart here.
Experiments:
LoVo = experiment: cells; settings: Homo sapiens, LoVo, 48 h; for GI50: read-out: LOVO GI50; for CC50: read-out: LOVO LC50; for IC (TGI): read-out: LOVO TGI
Method in brief: (§1)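 Colorimetric SRB read (490 nm) on triplicate wells after 48 h at 37 °C, 5% CO2. Dose range 10 to 10^−8 μg/ml; 5×10^3 cells/well pre-attached 18 h.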

HT-29 = experiment: cells; settings: Homo sapiens, HT-29, 48 h
Method in brief: as §1

A-549 = experiment: cells; settings: Homo sapiens, A549, 48 h
Method in brief: as §1

K-562 = experiment: Inhibition of cells growth by colorimetric assay (SRB); settings: Homo sapiens, K562, 48 h; for GI50: read-out: K562 GI50; for CC50: read-out: K562 LC50; for IC (TGI): read-out: K562 TGI
Method in brief: as §1

IGROV-1 = experiment: as above; settings: Homo sapiens, IGROV-1, 48 h; for GI50: read-out: IGROV GI50; for CC50: read-out: IGROV LC50; for IC (TGI): read-out: IGROV TGI
Method in brief: as §1

IGROV-ET = experiment: as above; settings: Homo sapiens, 48 h; for GI50: read-out: IGROV-ET GI50; for CC50: read-out: IGROV-ET LC50; for IC (TGI): read-out: IGROV-ET TGI
Method in brief: as §1

SK-BR-3 = experiment: as above; settings: Homo sapiens, SK-BR-3, 48 h; for GI50: read-out: SK-BR3 GI50; for CC50: read-out: SK-BR3 LC50; for IC (TGI): read-out: SK-BR3 TGI
Method in brief: as §1

LoVo-Dox = experiment: as above; settings: Homo sapiens, 48 h; for GI50: read-out: LOVO-DOX GI50; for CC50: read-out: LOVO-DOX LC50; for IC (TGI): read-out: LOVO-DOX TGI
Method in brief: as §1

HeLa = experiment: as above; settings: Homo sapiens, HeLa, 48 h; for GI50: read-out: HELA GI50; for CC50: read-out: HELA LC50; for IC (TGI): read-out: HELA TGI
Method in brief: as §1

SK-MEL-28 = experiment: as above; settings: Homo sapiens, SK-MEL-28, 48 h
Method in brief: as §1

HeLa-APL = experiment: as above; settings: Homo sapiens, 48 h; for GI50: read-out: HELA-APL GI50; for CC50: read-out: HELA-APL LC50
Method in brief: as §1

PANC-1 = experiment: as above; settings: Homo sapiens, PANC-1, 48 h; for GI50: read-out: PANC-1 GI50; for CC50: read-out: PANC-1 LC50; for IC (TGI): read-out: PANC-1 TGI
Method in brief: as §1

LNCaP = experiment: as above; settings: Homo sapiens, LNCaP, 48 h
Method in brief: as §1

DU-145 = experiment: as above; settings: Homo sapiens, DU-145, 48 h
Method in brief: as §1

COc1c(C)cc2c(c1O)[C@H]1N[C@@H](C2)[C@H](O)N2C1[C@@H]1SCC(NC(C)=O)C(=O)OC[C@H]2c2c3c(c(C)c(OC(C)=O)c21)OCO3 (some centres unmarked) [compound 36]
GI50 (LoVo): 2.12 nM
CC50 (LoVo): 15.6 nM
IC (TGI) (LoVo): 5.91 nM
GI50 (HT-29; read-out: GI50 HT29): 2.73 nM
CC50 (HT-29; read-out: LC50 HT29): 15600 nM
IC (TGI) (HT-29; read-out: TGI HT29): 11.7 nM
GI50 (A-549; read-out: GI50 A549): 5.56 nM
CC50 (A-549; read-out: LC50 A549): 83.8 nM
IC (TGI) (A-549; read-out: TGI A549): 22.9 nM
GI50 (K-562): 0.246 nM
CC50 (K-562): 5.11 nM
IC (TGI) (K-562): 0.7 nM
GI50 (IGROV-1): 1.12 nM
CC50 (IGROV-1): 10.4 nM
IC (TGI) (IGROV-1): 3.79 nM
GI50 (IGROV-ET): 27.7 nM
CC50 (IGROV-ET): 15600 nM
IC (TGI) (IGROV-ET): 71.7 nM
GI50 (SK-BR-3): 2.87 nM
CC50 (SK-BR-3): 15.4 nM
IC (TGI) (SK-BR-3): 6.65 nM
GI50 (LoVo-Dox): 246 nM
CC50 (LoVo-Dox): 15600 nM
IC (TGI) (LoVo-Dox): 1090 nM
GI50 (HeLa): 1.46 nM
CC50 (HeLa): 9.82 nM
IC (TGI) (HeLa): 3.85 nM
GI50 (SK-MEL-28; read-out: GI50 MEL-28): 1.84 nM
CC50 (SK-MEL-28; read-out: LC50 MEL-28): 8.71 nM
IC (TGI) (SK-MEL-28; read-out: TGI MEL-28): 4.01 nM
GI50 (HeLa-APL): 1.85 nM
CC50 (HeLa-APL): 10 nM
IC (TGI) (HeLa-APL; read-out: HELA-APL TGI): 4.3 nM
GI50 (PANC-1): 2.82 nM
CC50 (PANC-1): 2600 nM
IC (TGI) (PANC-1): 9.72 nM
GI50 (LNCaP; read-out: GI50 LNCAP): 0.46 nM
CC50 (LNCaP; read-out: LC50 LNCAP): 5.06 nM
IC (TGI) (LNCaP; read-out: TGI LNCAP): 1.37 nM
GI50 (DU-145; read-out: GI50 DU145): 3.58 nM
CC50 (DU-145; read-out: LC50 DU145): 10400 nM
IC (TGI) (DU-145; read-out: TGI DU145): 9.55 nM

C=CCN1[C@@H]2c3c(cc(C)c(OC)c3O)C[C@H]1[C@H](C#N)N1C2[C@@H]2SC[C@]3(NCCc4cc(OC(=O)OC(C)(C)C)c(OC)cc43)C(=O)OC[C@H]1c1c3c(c(C)c(OC(=O)/C=C/c4ccccc4)c12)OCO3 (some centres unmarked) [compound 47]
GI50 (LoVo): 9160 nM
CC50 (LoVo): 10200 nM
IC (TGI) (LoVo): 10200 nM
GI50 (HT-29; read-out: HT29 GI50): 10200 nM
CC50 (HT-29; read-out: HT29 LC50): 10200 nM
IC (TGI) (HT-29; read-out: HT29 TGI): 10200 nM
GI50 (A-549; read-out: A549 GI50): 10200 nM
CC50 (A-549; read-out: A549 LC50): 10200 nM
IC (TGI) (A-549; read-out: A549 TGI): 10200 nM
GI50 (K-562): 173 nM
CC50 (K-562): 10200 nM
IC (TGI) (K-562): 2320 nM
GI50 (IGROV-1): 4220 nM
CC50 (IGROV-1): 10200 nM
IC (TGI) (IGROV-1): 10200 nM
GI50 (IGROV-ET): 4920 nM
CC50 (IGROV-ET): 10200 nM
IC (TGI) (IGROV-ET): 10200 nM
GI50 (SK-BR-3): 301 nM
CC50 (SK-BR-3): 10200 nM
IC (TGI) (SK-BR-3): 1370 nM
GI50 (LoVo-Dox): 10200 nM
CC50 (LoVo-Dox): 10200 nM
IC (TGI) (LoVo-Dox): 10200 nM
GI50 (HeLa): 4100 nM
CC50 (HeLa): 10200 nM
IC (TGI) (HeLa): 10200 nM
GI50 (SK-MEL-28; read-out: MEL-28 GI50): 8700 nM
CC50 (SK-MEL-28; read-out: MEL-28 LC50): 10200 nM
IC (TGI) (SK-MEL-28; read-out: MEL-28 TGI): 10200 nM
GI50 (HeLa-APL): 3740 nM
CC50 (HeLa-APL): 10200 nM
GI50 (PANC-1): 10200 nM
CC50 (PANC-1): 10200 nM
IC (TGI) (PANC-1): 10200 nM
GI50 (LNCaP; read-out: LNCAP GI50): 449 nM
CC50 (LNCaP; read-out: LNCAP LC50): 10200 nM
IC (TGI) (LNCaP; read-out: LNCAP TGI): 2920 nM
GI50 (DU-145; read-out: DU145 GI50): 4120 nM
CC50 (DU-145; read-out: DU145 LC50): 10200 nM
IC (TGI) (DU-145; read-out: DU145 TGI): 10200 nM

Reference: US7767659B2, “Synthesis of naturally occurring ecteinascidins and related compounds” (Pharma Mar, S.A., priority 2002, dated 2010)
